Assay results reported in patent publication US7005257B1, “Detection of antibiotic resistance in microorganisms” (priority 1998, dated 2006).
In brackets after ≈: the same amount, converted by molar mass. Like-named read-outs stand apart in the source and are kept apart here.

Columns and labels:
Helicobacter = conditions: cited from earlier work
23S rRNA = conditions: protein-free 23S rRNA extracts (Noller et al., 1992); cited from earlier work
E. coli = tested on: E. coli; set-up: key: HS, hypersensitive; R, resistant; S, sensitive; conditions: cited from earlier work
H. pylori [1] = tested on: H. pylori; set-up: key: HS, hypersensitive; R, resistant; S, sensitive; conditions: cited from earlier work
M. intracellulare = tested on: M. intracellulare; set-up: key: HS, hypersensitive; R, resistant; S, sensitive; conditions: cited from earlier work
H. pylori [2] = assay: MIC value of conventionally characterized H. pylori isolates (clarithromycin); assay type: cell-based, Helicobacter pylori; set-up: MIC value: unit not given beside the values; conditions: for MIC: Helicobacter pylori
Description: Evaluating the MIC value determination by in-situ hybridization using conventionally characterized H. pylori isolates.

P. acnes = tested on: P. acnes; set-up: key: HS, hypersensitive; R, resistant; S, sensitive; conditions: cited from earlier work
M. pneumoniae = tested on: M. pneumoniae; set-up: key: HS, hypersensitive; R, resistant; S, sensitive; conditions: cited from earlier work

Compound: O=C([O-])c1ccccc1[O-].[Bi+3].[OH-] [BSS]
- Effect on Helicobacter (Helicobacter): bactericidal effect

Compound: CO[C@@H]1[C@@H](O[C@@H]2O[C@H](C)[C@@H](O[C@H]3C[C@@](C)(O)[C@@H](OC(=O)CC(C)C)[C@H](C)O3)[C@H](N(C)C)[C@H]2O)[C@@H](CC=O)C[C@@H](C)C(=O)/C=C/[C@@H]2O[C@@H]2C[C@@H](C)OC(=O)C[C@H]1OC(C)=O [carbomycin]
- Inhibition of in-vitro peptidyltransferase activity (23S rRNA): able to inhibit

Compound: O=C(N[C@H](CO)[C@H](O)c1ccc([N+](=O)[O-])cc1)C(Cl)Cl [chloramphenicol]
- Phenotype (E. coli; 23S rRNA mutation A2503C): Cam^R
- Phenotype (E. coli; 23S rRNA mutation G2032A): R
- Phenotype (E. coli; 23S rRNA mutation G2032C): S
- Phenotype (E. coli; 23S rRNA mutation G2032U): S
- Phenotype (E. coli; 23S rRNA mutation G2057A): Ery^R, Cam^R

Compound: CC[C@H]1OC(=O)[C@H](C)[C@@H](O[C@H]2C[C@@](C)(OC)[C@@H](O)[C@H](C)O2)[C@H](C)[C@@H](O[C@@H]2O[C@H](C)C[C@H](N(C)C)[C@H]2O)[C@](C)(OC)C[C@@H](C)C(=O)[C@H](C)[C@@H](O)[C@]1(C)O [clarithromycin]
- Phenotype (H. pylori [1]; 23S rRNA mutation A2053C): Cla^R
- Phenotype (H. pylori [1]; 23S rRNA mutation A2053G): Cla^R
- Phenotype (H. pylori [1]; 23S rRNA mutation A2059G): Cla^R
- Phenotype (M. intracellulare; 23S rRNA mutation A2053C): Cla^R
- Phenotype (M. intracellulare; 23S rRNA mutation A2058G): Cla^R
- Phenotype (M. intracellulare; 23S rRNA mutation A2058U): Cla^R
- MIC value (H. pylori [2]; H. pylori strain FD591): 16/32
- MIC (H. pylori [2]; H. pylori strain HH531): 48 µg/mL (≈ 64.2 µM)
- MIC (H. pylori [2]; H. pylori strain KJ472): 16 µg/mL (≈ 21.4 µM)
- MIC (H. pylori [2]; H. pylori strain MC028): 24 µg/mL (≈ 32.1 µM)
- MIC (H. pylori [2]; H. pylori strain MC132): 12 µg/mL (≈ 16 µM)
- MIC (H. pylori [2]; H. pylori strain MC141): > 256 µg/mL
- MIC (H. pylori [2]; H. pylori strain MPS1726): > 256 µg/mL
- MIC (H. pylori [2]; H. pylori strain MPS1765): > 256 µg/mL
- MIC (H. pylori [2]; H. pylori strain MPS3137): 96 µg/mL (≈ 128 µM)
- MIC (H. pylori [2]; H. pylori strain MPS3286): > 256 µg/mL
- Phenotype (P. acnes; 23S rRNA mutation A2058G): Cla^R, Ery^R
- Phenotype (P. acnes; 23S rRNA mutation A2059G): Cla^R, Ery^R
- Phenotype (P. acnes; 23S rRNA mutation G2057A): Cla^R, Ery^R

Compound: CC[C@H]1OC(=O)[C@H](C)[C@@H](O[C@H]2C[C@@](C)(OC)[C@@H](O)[C@H](C)O2)[C@H](C)[C@@H](O[C@@H]2O[C@H](C)C[C@H](N(C)C)[C@H]2O)[C@](C)(O)C[C@@H](C)C(=O)[C@H](C)[C@@H](O)[C@]1(C)O [erythromycin]
- Phenotype (E. coli; 23S rRNA mutation A2058G): Ery^R
- Phenotype (E. coli; 23S rRNA mutation A2058U): Ery^R
- Phenotype (E. coli; 23S rRNA mutation C2611U): Ery^RLin^RSgb^R
- Phenotype (E. coli; 23S rRNA mutation G2032A): HS
- Phenotype (E. coli; 23S rRNA mutation G2032C): HS
- Phenotype (E. coli; 23S rRNA mutation G2032U): HS
- Phenotype (E. coli; 23S rRNA mutation G2057A): Ery^R, Cam^R
- Phenotype (M. pneumoniae; 23S rRNA mutation A2058G): Ery^R
- Phenotype (M. pneumoniae; 23S rRNA mutation A2059G): Ery^R
- Phenotype (P. acnes; 23S rRNA mutation A2058G): Cla^R, Ery^R
- Phenotype (P. acnes; 23S rRNA mutation A2059G): Cla^R, Ery^R
- Phenotype (P. acnes; 23S rRNA mutation G2057A): Cla^R, Ery^R

Compound: CCC[C@@H]1C[C@@H](C(=O)N[C@@H]([C@H]2O[C@H](SC)[C@H](O)[C@@H](O)[C@H]2O)[C@@H](C)O)N(C)C1 [lincomycin]
- Phenotype (E. coli; 23S rRNA mutation C2611U): Ery^RLin^RSgb^R
